In publication PMC11233931, “Remodeling tumor‐associated macrophage for anti‐cancer effects by rational design of irreversible inhibition of mitogen‐activated protein kinase‐activated protein kinase 2” (MedComm, 2024):

Key:
[1] = molecular target: MK2 (Homo sapiens, UniProt P49137); experiment: MK2 kinase inhibition assay (ADP-Glo); assay type: biochemical; conditions: mean ± SD of two independent tests
Description: (§1) To assess the impact of various compounds on MK2 kinase activity, we utilized the ADP‐Glo Assay Kit (Promega) following the manufacturer's instructions. Luminescence measurements were taken using a SpectraMax Paradigm reader. The inhibition percentage was calculated using the following formula: ((specific signalDMSO control − specific signal inhibitor)/(specific signalDMSO control)) × 100%. The IC50 values were determined employing dose–response curve fitting via Prism (Graph Pad).

[2] = Cell viability assay (CCK-8), Raw264.7; assay type: cell-based; conditions: Raw264.7 cells (mononuclear macrophage), Raw264.7, mouse mononuclear macrophage, read-out: IC50 (μM) mean ± SD, cytotoxicity
Description: (§2) In cellular experiments, cells are seeded into either 6-well or 96-well plates and incubated overnight, proceeding with treatments as described in the figure legends or methods section. The cell inoculation numbers are outlined as follows: For assays measuring cell viability, between 3,000 to 5,000 cells are seeded per well in 96-well plates. For other cellular assays, the seeding density ranges from 5×10^5 to 1×10^6 cells per well in 6-well plates.
(§3) Cells was plated into 96-well plates and incubated overnight prior to introduction of varying concentrations of compounds or control solvent. Following a 72-hour exposure period, cell viability was determined using a Cell Counting Kit-8 assay (Life-iLab, China). Dose-response curves were fitted using a four-parameter method facilitated by SoftMax Pro, which was subsequently used for the computation of IC50 values.

[3] = Cell viability assay (CCK-8), THP-1; assay type: cell-based; conditions: THP-1 cells (monocyte), THP-1, human monocyte, read-out: IC50 (μM) mean ± SD, cytotoxicity
Description: as §2, §3

[4] = molecular target: T1, FGFR4 (Homo sapiens, UniProt P22455); experiment: Eurofins kinase selectivity profile, FGFR4; assay type: biochemical
T1 construct: purchased Eurofins (Celle Lévescault)
Description: Subsequently, to ascertain whether the high potency of compound 11 was specific for MK2, an additional 380 human recombinant protein kinases were screened.
as §1, with “Pad). Additionally, Eurofins company (Celle Lévescault) conducted the analysis on compound 11’s inhibitory activity against 380 other human recombinant kinases at various concentrations.” for “Pad).”

[5] = Mouse pharmacokinetics study; assay type: in vivo; conditions: male, ICR, plasma, mice, ip. 10 mg/kg, mean ± SD
Description: Compound 11 was dissolved in DMSO/Tween 80/PEG400/NaCl (5/5/45/45, v/v/v/v) to a concentration of 5 mg/mL and given to ICR mice (male, 18−22 g, n = 3) by intraperitoneal injection. Blood samples were obtained at intervals of 0.25, 0.5, 1, 2, 4, and 8 h following administration. The sample preparation and the analysis were following the protocol provided in the Supporting Information Methods.
[…] of plasma was mixed with […] of methanol: acetonitrile solvent (1:1, v/v) with internal standard, and the mixture was thoroughly vortexed. After centrifugation for 5 minutes, […] of the supernatant was combined with […] of water for analysis. Samples were analyzed by Xevo TQ-S triple quadrupole mass spectrometer. The ACQUITY UPLC BEH C^18 (1.7 µm, 2.0mm_ 50 mm, Waters, USA) was adopted for the analysis. Gradient elution was employed using a 5 mM ammonium acetate aqueous solution containing 0.1% formic acid, along with acetonitrile containing 0.1% formic acid. Following the analysis of compound concentrations, Phoenix WinNonlin (CERTARA, USA) was utilized to calculate the value of AUClast, AUCINFinf_obs and MRTINFinf_obs from time-concentration curves in each animal. Cmax denotes the peak plasma concentration, while Tmax signifies the time taken to achieve the peak concentration.

[6] = system: MRC1 and ARG-1 mRNA in bone marrow-derived macrophages (BMDM); experiment: RT-PCR of M2 markers in IL-4/IL-13 stimulated BMDM; assay type: cell-based, mouse; conditions: IL-4/IL-13 20 ng/mL
Text: A previous study has reported that MK2 fostered M2‐like polarization of TAMs, driving a protumor and proangiogenic phenotype which in turn accelerates tumor progression.[21] We thus assessed the influence of compound 11 on macrophage polarization and function. Our experiments used human THP‐1 monocyte induced macrophages, mouse RAW264.7 macrophages, and mouse bone marrow‐derived macrophages (BMDM). These cells were induced into M2‐like macrophages using the classic IL‐4 and IL‐13 stimuli.
FIGURE 5 Inhibition of pro‐tumorigenic M2‐like polarization in macrophages by compound 11. (A–C) RT‐PCR analysis highlights the impact of compound 11 on MRC1 and ARG‐1 mRNA expression in various macrophage cells treated with IL‐4/IL‐13 alone or combined with compound 11 for 12 h or 24 h. […] Data are shown as the mean ± SD. ^* p < 0.05; ^*** p < 0.001 versus the vehicle group, determined by unpaired t test. […]
Total RNA was extracted from cultured cells using the EZ‐press RNA Purification Kit (EZBioscience). Complementary DNA was synthesized using the ABScript III RT Master Mix for qPCR with gDNA remover (ABclonal Technology) and was quantified with primers listed in Table S5. The relative mRNA expression levels were quantified through qPCR using the SYBR green gene expression assay (ABclonal Technology).

T1 sequence (P22455 22-802): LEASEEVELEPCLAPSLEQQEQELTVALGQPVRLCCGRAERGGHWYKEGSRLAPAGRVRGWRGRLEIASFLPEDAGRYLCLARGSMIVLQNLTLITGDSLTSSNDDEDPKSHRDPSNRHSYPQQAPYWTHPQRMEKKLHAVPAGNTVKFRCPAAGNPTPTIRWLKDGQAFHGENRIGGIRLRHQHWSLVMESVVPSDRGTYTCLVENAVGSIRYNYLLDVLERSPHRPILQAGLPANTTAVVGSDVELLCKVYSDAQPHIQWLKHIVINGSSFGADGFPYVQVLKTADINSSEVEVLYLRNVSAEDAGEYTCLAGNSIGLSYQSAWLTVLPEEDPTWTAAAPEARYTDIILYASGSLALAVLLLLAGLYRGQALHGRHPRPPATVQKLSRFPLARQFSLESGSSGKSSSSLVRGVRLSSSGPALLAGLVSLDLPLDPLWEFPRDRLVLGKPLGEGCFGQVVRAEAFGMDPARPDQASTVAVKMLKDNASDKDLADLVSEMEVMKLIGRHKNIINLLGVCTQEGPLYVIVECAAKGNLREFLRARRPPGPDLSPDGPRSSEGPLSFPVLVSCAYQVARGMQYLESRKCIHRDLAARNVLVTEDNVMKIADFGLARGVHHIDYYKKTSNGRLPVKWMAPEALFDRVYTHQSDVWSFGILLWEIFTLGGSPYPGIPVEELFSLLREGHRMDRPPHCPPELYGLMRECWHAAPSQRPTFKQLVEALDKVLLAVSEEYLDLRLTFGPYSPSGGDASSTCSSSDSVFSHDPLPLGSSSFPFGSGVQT
MK2, sequence (P49137 whole entry): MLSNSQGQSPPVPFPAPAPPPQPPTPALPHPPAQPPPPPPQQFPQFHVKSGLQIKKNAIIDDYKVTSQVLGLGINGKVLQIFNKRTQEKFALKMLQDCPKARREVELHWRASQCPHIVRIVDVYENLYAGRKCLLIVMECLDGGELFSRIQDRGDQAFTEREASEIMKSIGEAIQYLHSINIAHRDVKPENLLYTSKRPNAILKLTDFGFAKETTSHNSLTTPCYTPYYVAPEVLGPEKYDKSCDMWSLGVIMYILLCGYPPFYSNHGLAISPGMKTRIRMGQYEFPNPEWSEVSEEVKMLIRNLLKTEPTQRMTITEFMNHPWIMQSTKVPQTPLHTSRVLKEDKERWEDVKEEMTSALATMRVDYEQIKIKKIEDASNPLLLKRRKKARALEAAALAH

`C=CC(=O)Nc1cc(-c2cc(-c3cc4c([nH]3)CCNC4=O)ccn2)ccc1OC(F)(F)F` [compound 11] showed an IC50 [1] of 2.3 nM, an IC50 at 72 h [2] of 31.7 ± 2.9 µM and an IC50 at 72 h [3] of 34.7 ± 0.4 µM. For the same molecule, the IC50 [4] was > 1000 nM, the inhibition at 0.01 µM ([4]; FGFR4(h), 10 nM, read-out: Inhibition rate) was 0% and the inhibition at 0.1 µM ([4]; FGFR4(h), 100 nM, read-out: Inhibition rate) was -5%. It also gave an inhibition at 1 µM ([4]; FGFR4(h), 1000 nM, read-out: Inhibition rate) of -1%, an AUC(0-t) [5] of 44.5 ± 21.4 ng·h/mL and a Cmax [5] of 126 ng/mL. The Tmax [5] was 3 min, the half-life [5] was 22.8 min and the AUC ([5]; read-out: AUCinf_obc) was 45.2 ± 21.3 ng·h/mL. The MRT inf ([5]; read-out: MRTinf_obs) was 98.4 ± 125 min and the “effect on transcriptional level of MRC1 and ARG-1” value [6] was “significantly suppressed”.
